# Measurements taken from paper PMC10778626, “Efficacy of Novel Quaternary Ammonium and Phosphonium Salts Differing in Cation Type and Alkyl Chain Length against Antibiotic-Resistant Staphylococcus aureus” (International Journal of Molecular Sciences, 2023).
# Columns and labels:
# [1] = tested on: S. aureus XU212, SA1199B, and RN4220; assay: MIC/MBC by broth microdilution, ranges over the antibiotic-resistant strains; format: cell-based, Staphylococcus aureus
# Procedure: (§1) S. aureus CECT 976, obtained from the Spanish Type Culture Collection, was used as the standard susceptibility testing control strain. This strain has been previously employed in diverse studies to validate the antimicrobial effects of novel molecules. Additional antibiotic-resistant strains, S. aureus XU212, SA1199B, and RN4220, generously provided by S. Gibbons (University College London, London, UK) were tested. […] The SA1199B strain is characterized by its resistance to fluoroquinolones due to the overexpression of the NorA efflux pump and its ciprofloxacin resistance.
# The minimum inhibitory concentration (MIC) and minimum bactericidal concentration (MBC) values of all QHSs were determined by the broth microdilution method, according to the approved M7-A7 (aerobes) standards of the Clinical and Laboratory Standards Institute (CLSI) guidelines. […] Absorbance measurements were performed at the beginning (t = 0 h) and end (t = 24 h) of the incubation period using a microtiter plate absorbance reader (BMG LABTECH FLUOstar Omega). […]
# Plates were incubated at 37 °C for 24 h, and growth was visually inspected. The MBC was determined as the lowest concentration of compound in which the total inhibition of growth on solid medium was observed (no colony forming units (CFUs) were detected). […]
# S. aureus CECT 976 [2] = assay: Quantitative suspension test, dose-response against planktonic bacteria; format: cell-based, Staphylococcus aureus; details: 30 min exposure; for concentration inducing reductions in S. aureus log CFU/mL > 5 / MBC: S. aureus CECT 976; for MBC: Staphylococcus aureus, CECT976, 0.5 h, 37 °C, distilled water
# Procedure: A quantitative suspension test to explore the dose–response relationships of QHSs by evaluating bactericidal activity was performed. For this method, overnight grown cultures were centrifuged (VWR Mega Star 600R) at 3772× g for 10 min and washed twice with phosphate-buffered saline (PBS; 1.44 g/L of […]—Labkem, Barcelona, Spain; 8 g/L of sodium chloride, 0.2 g/L of potassium chloride, and 0.24 g/L of potassium dihydrogen phosphate—VWR, Leuven, Belgium) at pH 7.4. The collected cells were resuspended in PBS and adjusted to an optical density (OD) of 0.132 ± 0.02 (λ = 600 nm). Afterwards, 100 µL of this cell suspension was aseptically transferred to 800 µL of DW and allowed to stand for 2 min. To this mixture, 100 µL of each QHS solution diluted in DMSO at the desired concentration was added. The dose–response evaluation took place for 30 min at 37 °C. In the case of the negative control (untreated cells), the QHS solution was replaced by an equal volume of DMSO or DW. At the end of the contact time, QHS neutralization was performed through the dilution-neutralization method using a universal neutralizer (1 g/L L-histidine (Merck—Tokyo, Japan), 3 g/L lecithin (Alfa Aesar—Karlsruhe, Germany), 5 g/L sodium thiosulphate (Labkem—Barcelona, Spain), 30 g/L saponin (VWR Chemicals—Leuven, Belgium), and 30 g/L polysorbate 80 (VWR Chemicals—Le Havre, France) in 0.0025 M phosphate buffer). For neutralization, the test blend (100 µL) was added to 800 µL sterile aqueous neutralizing solution and 100 µL of DW. The mixture was gently agitated and allowed to stand for 10 min, after which serial dilutions (up to 10^−5) in sterile saline solution (0.85% w/v NaCl) were prepared. Then, 10 µL of each serial dilution was plated into Petri dishes containing PCA by the drop-plating method. The plates were allowed to set, then inverted and placed in an incubator at 37 °C for 24 h. The surviving cells on the QHS neutralized samples were determined by CFU counting on each plate, ensuring the counting of dilution plates that gave between 10 and 100 CFUs. The antibacterial activity was evaluated by quantification of logarithmic reduction (log CFU/mL), according to Equation (2). log CFU/mL reduction = log (X) − log (X0), (2) where X0 and X are the counts of CFU/mL before (untreated control cells) and after quaternary salt exposure, respectively.
# The QHS concentrations chosen for conducting the dose–response tests comprise of the MBC, which causes the complete reduction of planktonic cells, as well as lower concentrations. Specifically, compound 1e was evaluated at concentrations of 0.25, 0.5, 0.75, 1, 2, 4, 8, and 16 µg/mL, compound 7e at concentrations of 1, 2, 3.2, 3.5, 4, 8, and 16 µg/mL, compound 5e at concentrations of 0.5, 1, 1.3, 1.6, 2, 4, and 8 µg/mL, and compound 3e at concentrations of 0.5, 0.75, 1, 1.3, 1.6, 2, 4, and 8 µg/mL. In the case of compounds 2e, 6e, and 4e, concentrations tested were 0.5, 1, 1.6, 2, 4, and 8 µg/mL. All tests were performed in duplicate, and with a minimum of three independent repeats.
# The Chick–Watson mathematical model, provided in Equation (3), is considered an adequate approach to validate the kinetics of dose–response data. log X/X0 = − Kdis C^n t (3) where X0 and X are the counts of CFU/mL before and after quaternary salt exposure, respectively; Kdis is a killing rate coefficient ((mL.µg^−1)^n.min^−1); C is the quaternary salt concentration (µg.mL^−1); n is the concentration exponent and t is the exposure time (min). The concentration dependence of killing (n) was determined using a toolbox for linear regression in GraphPad Prism (version 8.4.0, GraphPad Software, La Jolla, CA, USA). The quality of the model was evaluated through the regression coefficient (R^2).
# S. aureus SA1199B = assay: MIC/MBC by broth microdilution, S. aureus SA1199B; format: cell-based; details: Staphylococcus aureus
# Procedure: as §1
# (§2) The minimum inhibitory concentration (MIC) and minimum bactericidal concentration (MBC) values of all QHSs were determined by the broth microdilution method, according to the approved M7-A7 (aerobes) standards of the Clinical and Laboratory Standards Institute (CLSI) guidelines. Overnight cell cultures of S. aureus, in the exponential phase of growth, were adjusted to an optical density (OD) of 0.132 ± 0.02 (λ = 600 nm). Then, a volume of 180 µL of the cell suspension was added to sterile, flat, clear-bottomed polystyrene (PS) 96-well microtiter plates (VWR—Radnor, PA, USA), already containing 20 µL of each QHS under study at concentrations ranging from 0.0625 to 64 µg/mL. In the end, the volume of each compound never exceeded 10% (v/v) of the well volume. Microtiter plates were then incubated for 24 h at 37 °C under agitation (150 rpm; INCU-Line IL 150R incubator). Absorbance measurements were performed at the beginning (t = 0 h) and end (t = 24 h) of the incubation period using a microtiter plate absorbance reader (BMG LABTECH FLUOstar Omega). Bacterial suspensions with DMSO and without QHSs were used as negative controls. […] All tests were performed with six replicates and a minimum of three independent repeats.
# Plates were incubated at 37 °C for 24 h, and growth was visually inspected. The MBC was determined as the lowest concentration of compound in which the total inhibition of growth on solid medium was observed (no colony forming units (CFUs) were detected). All tests were performed in triplicate, and with a minimum of three independent repeats.
# S. aureus CECT 976 [3] = assay: MIC/MBC by broth microdilution, S. aureus CECT 976; format: cell-based; details: Staphylococcus aureus, CECT976, S. aureus CECT 976, broth microdilution; for MIC: 24 h, 37 °C, read-out: MIC; for MBC: plated on PCA, read-out: MBC
# Procedure: as §2
# Plates were incubated at 37 °C for 24 h, and growth was visually inspected. […] All tests were performed in triplicate, and with a minimum of three independent repeats.
SMILES,"MBC values, range over strains [1]",concentration inducing reductions in S. aureus log CFU/mL > 5 (S. aureus CECT 976 [2]),MBC (S. aureus CECT 976 [2]),MBC (S. aureus SA1199B),MIC (S. aureus SA1199B),MIC (S. aureus CECT 976 [3]),MBC (S. aureus CECT 976 [3]),maximum log CFU/mL reduction (S. aureus CECT 976 [2]; at 4 μg/mL),maximum log CFU/mL reduction (S. aureus CECT 976 [2]; at 1.3 μg/mL)
"CCCCCCCCCCCCCC[P+](c1ccccc1)(c1ccccc1)c1ccccc1 [Compound 1e, Triphenyl(tetradecyl)phosphonium bromide]",2 µg/mL,0.7 μg/mL,1 µg/mL,2 µg/mL,1 µg/mL,1 µg/mL,16 µg/mL,,
"CCCCCCCCCCCCCC[n+]1ccccc1.[Br-] [Compound 6e, 1-Tetradecylpyridin-1-ium bromide]",,3.2 μg/mL,,16 µg/mL,16 µg/mL,4 µg/mL,8 µg/mL,5.9 log CFU/mL,
"CCCCCCCCCCCCCC[n+]1ccc(C)cc1.[Br-] [Compound 4e, 4-Methyl-1-tetradecylpyridin-1-ium bromide]",,3.5 μg/mL,,32 µg/mL,8 µg/mL,2 µg/mL,8 µg/mL,5.9 log CFU/mL,
"CCCCCCCCCCCCCC[n+]1cccc2ccccc21.[Br-] [Compound 5e, 1-Tetradecylquinolin-1-ium bromide]",8 µg/mL,1.2 μg/mL,1.3 µg/mL,8 µg/mL,4 µg/mL,2 µg/mL,8 µg/mL,,6.0 log CFU/mL
"CCCCCCCCCCCCCC[n+]1ccc2ccccc2c1.[Br-] [Compound 3e, 2-Tetradecylisoquinolin-2-ium bromide]",,1.2 μg/mL,1.3 µg/mL,8 µg/mL,2 µg/mL,2 µg/mL,8 µg/mL,,6.0 log CFU/mL
"CCCCCCCCCCCCCC[n+]1ccn(C)c1.[Br-] [Compound 2e, 1-Methyl-3-tetradecyl-1H-imidazol-3-ium bromide]",,2.8 μg/mL,,32 µg/mL,8 µg/mL,1 µg/mL,8 µg/mL,,
